Experimental data: patent US6914045B2, “Glycopeptide antibiotics” (Wyeth Holdings Corporation, priority 2001, dated 2005)
≈ marks a conversion by molar mass, not a printed value.

Columns and labels:
Test in all cases: in vitro antibacterial evaluation, MIC by broth dilution
Assay type in all cases: cell-based
Staphylococcus sp. = conditions: broth dilution, 18 hours at 35° C.; for MIC Staphylococcus aureus (GC 1131): strain GC 1131
Procedure, shortened: (§1)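 Read-out: the lowest concentration at which the test strain fails to grow. Serial dilutions (64-0.06 μg/mL) in Muller-Hinton II […], 5×10^5 CFU/mL inoculum, NCCLS M7-A2 procedure.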

Streptococcus sp. = conditions: broth dilution, 18 hours at 35° C.; for MIC Streptococcus pneumoniae (ATCC 6301): strain ATCC 6301; for MIC Streptococcus pneumoniae (GC 1894): strain GC 1894; for MIC Streptococcus pyogenes (GC 4563): strain GC 4563; for MIC Streptococcus agalactiae (GC 4564): strain GC 4564; for MIC Streptococcus pneumoniae (GC 4565): strain GC 4565
Procedure, shortened: as §1

Escherichia coli = system: Escherichia coli
Procedure, shortened: as §1

Enterococcus sp. = conditions: broth dilution, 18 hours at 35° C.; for MIC Enterococcus faecalis (ATCC 29212): strain ATCC 29212; for MIC Enterococcus faecalis (GC 2242): strain GC 2242; for MIC Enterococcus faecium (GC 2243): strain GC 2243; for MIC Enterococcus faecalis (GC 2691): strain GC 2691; for MIC Enterococcus faecalis (GC 3059): strain GC 3059; for MIC Enterococcus faecalis (GC 4552): strain GC 4552; for MIC Enterococcus faecalis (GC 4553): strain GC 4553; for MIC Enterococcus faecalis (GC 4554): strain GC 4554; for MIC Enterococcus faecium (GC 4556): strain GC 4556; for MIC Enterococcus faecium (GC 4557): strain GC 4557; for MIC Enterococcus avium (GC 4558): strain GC 4558; for MIC Enterococcus faecalis (GC 6189): strain GC 6189
Procedure, shortened: as §1

CC(c1ccccc1)C1NC(=O)CNC(=O)C(CO)NC(=O)C(C(O)C2CNC(=N)N2C2OC(CO)C(O)C(O)C2O)NC(=O)C(C(O)C2CNC(=N)N2)NC(=O)C(Cc2ccc(OC3OC(CO)C(OC4OC5COC(c6ccc(-c7ccsc7)cc6)OC5C(O)C4O)C(O)C3O)cc2)NC1=O (stereo not drawn) [Example 164]
MIC Staphylococcus aureus (GC 1131) (Staphylococcus sp.; inoculum 5×10^5 CFU/mL): 4 µg/mL (≈ 2.73 µM) | MIC Staphylococcus aureus (ATCC 29213) (Staphylococcus sp.; strain ATCC 29213): 8 µg/mL (≈ 5.46 µM) | MIC Staphylococcus aureus (GC 1131) (Staphylococcus sp.): 4 µg/mL (≈ 2.73 µM) | MIC Staphylococcus aureus (GC 3051) (Staphylococcus sp.; strain GC 3051): 16 µg/mL (≈ 10.9 µM) | MIC Staphylococcus aureus (GC 3053) (Staphylococcus sp.; strain GC 3053): 8 µg/mL (≈ 5.46 µM) | MIC Staphylococcus aureus (GC 4541) (Staphylococcus sp.; strain GC 4541): 8 µg/mL (≈ 5.46 µM) | MIC Staphylococcus aureus (GC 4542) (Staphylococcus sp.; strain GC 4542): 16 µg/mL (≈ 10.9 µM) | MIC Staphylococcus aureus-SMITH (GC 4543) (Staphylococcus sp.; strain GC 4543): 4 µg/mL (≈ 2.73 µM) | MIC Staphylococcus aureus (GC 4544) (Staphylococcus sp.; strain GC 4544): 8 µg/mL (≈ 5.46 µM) | MIC Staphylococcus aureus (GC 4545) (Staphylococcus sp.; strain GC 4545): 4 µg/mL (≈ 2.73 µM) | MIC Staphylococcus haemolyticus (GC 4546) (Staphylococcus sp.; strain GC 4546): 4 µg/mL (≈ 2.73 µM) | MIC Coagulase Negative Staphylococcus (GC 4547) (Staphylococcus sp.; strain GC 4547): 4 µg/mL (≈ 2.73 µM) | MIC Coagulase Negative Staphylococcus (GC 4548) (Staphylococcus sp.; strain GC 4548): 1 µg/mL (≈ 0.682 µM) | MIC Coagulase Negative Staphylococcus (GC 4549) (Staphylococcus sp.; strain GC 4549): 0.5 µg/mL (≈ 0.341 µM) | MIC Coagulase Negative Staphylococcus (GC 4551) (Staphylococcus sp.; strain GC 4551): 4 µg/mL (≈ 2.73 µM) | MIC Coagulase Negative Staphylococcus (GC 6257) (Staphylococcus sp.; strain GC 6257): 1 µg/mL (≈ 0.682 µM) | MIC Staphylococcus aureus-SMITH (GC 4543) (Staphylococcus sp.; strain SMITH GC 4543): 4 µg/mL (≈ 2.73 µM) | MIC Streptococcus pneumoniae (ATCC 6301) (Streptococcus sp.; inoculum 5×10^5 CFU/mL): <0.06 µg/mL | MIC Streptococcus pneumoniae (GC 1894) (Streptococcus sp.; inoculum 5×10^5 CFU/mL): <0.06 µg/mL | MIC Streptococcus pyogenes (GC 4563) (Streptococcus sp.; inoculum 5×10^5 CFU/mL): 0.12 µg/mL (≈ 0.0819 µM) | MIC Streptococcus agalactiae (GC 4564) (Streptococcus sp.; inoculum 5×10^5 CFU/mL): 0.12 µg/mL (≈ 0.0819 µM) | MIC Streptococcus pneumoniae (GC 4565) (Streptococcus sp.; inoculum 5×10^5 CFU/mL): <0.06 µg/mL | MIC Streptococcus pneumoniae (ATCC 6301) (Streptococcus sp.): <0.06 µg/mL | MIC Streptococcus pneumoniae (GC 1894) (Streptococcus sp.): <0.06 µg/mL | MIC Streptococcus pyogenes (GC 4563) (Streptococcus sp.): 0.12 µg/mL (≈ 0.0819 µM) | MIC Streptococcus agalactiae (GC 4564) (Streptococcus sp.): 0.12 µg/mL (≈ 0.0819 µM) | MIC Streptococcus pneumoniae (GC 4565) (Streptococcus sp.): <0.06 µg/mL | MIC Escherichia coli (ATCC 25922) (Escherichia coli; strain ATCC 25922, 18 hours at 35° C.): >64 µg/mL | MIC Escherichia coli (GC 4559) (Escherichia coli; strain GC 4559, 18 hours at 35° C.): 64 µg/mL (≈ 43.7 µM) | MIC Escherichia coli (GC 4560) (Escherichia coli; strain GC 4560, 18 hours at 35° C.): 4 µg/mL (≈ 2.73 µM) | MIC Enterococcus faecalis (ATCC 29212) (Enterococcus sp.; inoculum 5×10^5 CFU/mL): 8 µg/mL (≈ 5.46 µM) | MIC Enterococcus faecalis (GC 2242) (Enterococcus sp.; inoculum 5×10^5 CFU/mL): 4 µg/mL (≈ 2.73 µM) | MIC Enterococcus faecium (GC 2243) (Enterococcus sp.; inoculum 5×10^5 CFU/mL): 8 µg/mL (≈ 5.46 µM) | MIC Enterococcus faecalis (GC 2691) (Enterococcus sp.; inoculum 5×10^5 CFU/mL): 8 µg/mL (≈ 5.46 µM) | MIC Enterococcus faecalis (GC 3059) (Enterococcus sp.; inoculum 5×10^5 CFU/mL): 8 µg/mL (≈ 5.46 µM) | MIC Enterococcus faecalis (GC 4552) (Enterococcus sp.; inoculum 5×10^5 CFU/mL): 8 µg/mL (≈ 5.46 µM) | MIC Enterococcus faecalis (GC 4553) (Enterococcus sp.; inoculum 5×10^5 CFU/mL): 8 µg/mL (≈ 5.46 µM) | MIC Enterococcus faecalis (GC 4554) (Enterococcus sp.; inoculum 5×10^5 CFU/mL): 16 µg/mL (≈ 10.9 µM) | MIC Enterococcus faecium (GC 4556) (Enterococcus sp.; inoculum 5×10^5 CFU/mL): 8 µg/mL (≈ 5.46 µM) | MIC Enterococcus faecium (GC 4557) (Enterococcus sp.; inoculum 5×10^5 CFU/mL): 4 µg/mL (≈ 2.73 µM) | MIC Enterococcus avium (GC 4558) (Enterococcus sp.; inoculum 5×10^5 CFU/mL): 8 µg/mL (≈ 5.46 µM) | MIC Enterococcus faecalis (GC 6189) (Enterococcus sp.; inoculum 5×10^5 CFU/mL): 4 µg/mL (≈ 2.73 µM) | MIC Enterococcus faecalis (ATCC 29212) (Enterococcus sp.): 8 µg/mL (≈ 5.46 µM) | MIC Enterococcus faecalis (GC 2242) (Enterococcus sp.): 4 µg/mL (≈ 2.73 µM) | MIC Enterococcus faecium (GC 2243) (Enterococcus sp.): 8 µg/mL (≈ 5.46 µM) | MIC Enterococcus faecalis (GC 2691) (Enterococcus sp.): 8 µg/mL (≈ 5.46 µM) | MIC Enterococcus faecalis (GC 3059) (Enterococcus sp.): 8 µg/mL (≈ 5.46 µM) | MIC Enterococcus faecalis (GC 4552) (Enterococcus sp.): 8 µg/mL (≈ 5.46 µM) | MIC Enterococcus faecalis (GC 4553) (Enterococcus sp.): 8 µg/mL (≈ 5.46 µM) | MIC Enterococcus faecalis (GC 4554) (Enterococcus sp.): 16 µg/mL (≈ 10.9 µM) | MIC Enterococcus faecium (GC 4556) (Enterococcus sp.): 8 µg/mL (≈ 5.46 µM) | MIC Enterococcus faecium (GC 4557) (Enterococcus sp.): 4 µg/mL (≈ 2.73 µM) | MIC Enterococcus avium (GC 4558) (Enterococcus sp.): 8 µg/mL (≈ 5.46 µM) | MIC Enterococcus faecalis (GC 6189) (Enterococcus sp.): 4 µg/mL (≈ 2.73 µM)
